Laboratory results taken from the NIST ThermoML archive (doi:10.1016/j.tca.2008.05.004).
“And” between values parts separate entries of the source, which are not always exact repeats. Equal entries are not always repeated. Numbers after ± are expanded uncertainties.

Assay: molar heat capacity at constant pressure
Conditions: 101.33 kPa, Crystal, Small (less than 1 g) adiabatic calorimetry

O=P([O-])([O-])[O-].[La+3] [lanthanum orthophosphate]
Conditions	molar heat capacity at constant pressure
129.4 K	58.21 ± 0.43 J/K/mol
130 K	58.4 ± 0.43 J/K/mol
131.85 K	59.09 ± 0.44 J/K/mol
134.29 K	59.99 ± 0.44 J/K/mol
136.73 K	60.84 ± 0.44 J/K/mol
139.17 K	61.67 ± 0.45 J/K/mol
140 K	62.1 ± 0.45 J/K/mol
141.61 K	62.6 ± 0.45 J/K/mol
144.05 K	63.49 ± 0.45 J/K/mol
146.46 K	64.31 ± 0.46 J/K/mol
148.9 K	65.12 ± 0.46 J/K/mol
150 K	65.6 ± 0.46 J/K/mol
151.33 K	65.92 ± 0.46 J/K/mol
153.76 K	66.8 ± 0.47 J/K/mol
156.18 K	67.59 ± 0.47 J/K/mol
158.61 K	68.21 ± 0.47 J/K/mol
160 K	68.93 ± 0.48 J/K/mol
161.03 K	69.15 ± 0.48 J/K/mol
163.45 K	69.96 ± 0.48 J/K/mol
165.87 K	70.75 ± 0.48 J/K/mol
168.29 K	71.39 ± 0.49 J/K/mol
170 K	72.09 ± 0.49 J/K/mol
170.7 K	72.25 ± 0.49 J/K/mol
173.11 K	73.03 ± 0.49 J/K/mol
175.52 K	73.72 ± 0.49 J/K/mol
177.92 K	74.42 ± 0.5 J/K/mol
180 K	75.12 ± 0.5 J/K/mol
180.31 K	75.07 ± 0.5 J/K/mol
182.7 K	75.83 ± 0.5 J/K/mol
185.04 K	76.53 ± 0.51 J/K/mol
187.44 K	77.24 ± 0.51 J/K/mol
189.83 K	77.9 ± 0.51 J/K/mol
190 K	78.01 ± 0.51 J/K/mol
192.21 K	78.51 ± 0.51 J/K/mol
199.36 K	80.46 ± 0.52 J/K/mol
200 K	80.78 ± 0.52 J/K/mol
202.14 K	81.27 ± 0.53 J/K/mol
205.3 K	82.08 ± 0.53 J/K/mol
208.46 K	82.89 ± 0.53 J/K/mol
210 K	83.44 ± 0.53 J/K/mol
211.61 K	83.64 ± 0.53 J/K/mol
214.75 K	84.46 ± 0.54 J/K/mol
217.89 K	85.24 ± 0.54 J/K/mol
220 K	85.98 ± 0.54 J/K/mol
220.27 K	86.55 ± 0.55 J/K/mol
223.51 K	87.38 ± 0.55 J/K/mol
226.73 K	88.15 ± 0.55 J/K/mol
229.94 K	88.77 ± 0.56 J/K/mol
230 K	88.41 ± 0.55 J/K/mol
233.13 K	89.33 ± 0.56 J/K/mol
236.34 K	89.95 ± 0.56 J/K/mol
239.53 K	90.87 ± 0.56 J/K/mol
240 K	90.75 ± 0.56 J/K/mol
242.69 K	91.56 ± 0.57 J/K/mol
245.83 K	92.05 ± 0.57 J/K/mol
248.99 K	92.61 ± 0.57 J/K/mol
250 K	92.99 ± 0.57 J/K/mol
252.14 K	93.33 ± 0.57 J/K/mol
255.28 K	94.2 ± 0.58 J/K/mol
258.37 K	94.93 ± 0.58 J/K/mol
260 K	95.13 ± 0.58 J/K/mol
261.31 K	95.4 ± 0.58 J/K/mol
264.37 K	95.93 ± 0.58 J/K/mol
267.41 K	96.5 ± 0.59 J/K/mol
270 K	97.19 ± 0.59 J/K/mol
270.48 K	97.19 ± 0.59 J/K/mol
273.52 K	97.78 ± 0.59 J/K/mol
276.54 K	98.45 ± 0.59 J/K/mol
279.55 K	99 ± 0.6 J/K/mol
280 K	99.17 ± 0.6 J/K/mol
282.53 K	99.55 ± 0.6 J/K/mol
285.49 K	100.2 ± 0.6 J/K/mol
288.42 K	100.6 ± 0.6 J/K/mol
290 K	101.1 ± 0.6 J/K/mol
291.33 K	101.2 ± 0.6 J/K/mol
294.21 K	101.7 ± 0.6 J/K/mol
297.05 K	102.3 ± 0.6 J/K/mol
299.79 K	102.8 ± 0.6 J/K/mol
300 K	102.9 ± 0.6 J/K/mol
302.76 K	103.4 ± 0.6 J/K/mol
306.59 K	104.1 ± 0.6 J/K/mol
310.93 K	105 ± 0.6 J/K/mol
315.5 K	105.8 ± 0.6 J/K/mol
320 K	106.5 ± 0.6 J/K/mol and 106.3 ± 0.6 J/K/mol
324.45 K	106.9 ± 0.6 J/K/mol
340 K	109.4 ± 0.6 J/K/mol
360 K	112.3 ± 0.7 J/K/mol
373 K	113.9 ± 0.7 J/K/mol
400 K	117.1 ± 0.7 J/K/mol
450 K	122 ± 0.7 J/K/mol
500 K	126 ± 0.7 J/K/mol
550 K	129.4 ± 0.7 J/K/mol
600 K	132.4 ± 0.7 J/K/mol
650 K	135.2 ± 0.7 J/K/mol
700 K	137.7 ± 0.8 J/K/mol
750 K	140.1 ± 0.8 J/K/mol
800 K	142.4 ± 0.8 J/K/mol
850 K	144.6 ± 0.8 J/K/mol
900 K	146.7 ± 0.8 J/K/mol
950 K	148.7 ± 0.8 J/K/mol
1000 K	150.8 ± 0.8 J/K/mol
1050 K	152.8 ± 0.8 J/K/mol
1100 K	154.7 ± 0.8 J/K/mol
1150 K	156.6 ± 0.8 J/K/mol
1200 K	158.5 ± 0.8 J/K/mol
1250 K	160.4 ± 0.8 J/K/mol
1300 K	162.3 ± 0.9 J/K/mol
1350 K	164.2 ± 0.9 J/K/mol
1400 K	166 ± 0.9 J/K/mol
1450 K	167.9 ± 0.9 J/K/mol
1500 K	169.7 ± 0.9 J/K/mol
1550 K	171.5 ± 0.9 J/K/mol
1600 K	173.4 ± 0.9 J/K/mol
